{"source": "patent US20090208434A1", "about": "“3-(4-hydroxy-3-methoxyphenyl)-1-(4-hydroxyphenyl)-1-propanone and its use in cosmetic and pharmaceutical preparations” (SYMRISE GmbH & Co. KG, priority 2008, published 2009)", "key": {"[1]": {"test_system": "IL-6", "experiment": "Inhibition of upregulation of inflammatory mediators: IL-6", "conditions": "according to the dose and even at low concentrations", "source_text": "(§1) It can therefore be used as an outstanding alternative or as an addition to other already well-known anti-inflammatory compounds (active substances) in cosmetic and pharmaceutical preparations or similar as an anti-inflammatory active substance."}, "[2]": {"experiment": "Investigations of the chemical characteristics (stability)", "type": "physicochemical", "source_text": "Furthermore, once the inventive compound of formula 1 had been incorporated into inventive cosmetic and pharmaceutical preparations no discoloration of this preparation was detected."}, "[3]": {"test_system": "PGE-2 (prostaglandin E2)", "experiment": "Inhibition of upregulation of inflammatory mediators: PGE-2", "conditions": "according to the dose and even at low concentrations", "source_text": "as §1"}, "[4]": {"test_system": "IL-1", "experiment": "Inhibition of upregulation of inflammatory mediators: IL-1", "conditions": "according to the dose and even at low concentrations", "source_text": "as §1"}, "[5]": {"experiment": "Sensitization and irritation test of the compound itself", "conditions": "test concentration of 50% by weight", "source_text": "The inventive compound of formula 1 with an anti-inflammatory effect can also be used as a component of inventive scent compositions (odorous substance compositions) and for example to give a perfumed finished product an anti-inflammatory effect. Since the proportion of perfume in a cosmetic finished product is often around 1% by weight, a scent containing the inventive compound of formula 1, will preferably include or be comprised approximately 1-50% by weight of the compound of formula 1."}, "[6]": {"test_system": "TNF-alpha (tumor necrosis factor alpha)", "experiment": "Inhibition of upregulation of inflammatory mediators: TNF-alpha", "conditions": "according to the dose and even at low concentrations", "source_text": "as §1"}}, "data": [{"smiles": "COc1cc(CCC(=O)c2ccc(O)cc2)ccc1O", "note": "[compound of formula 1, 3-(4-hydroxy-3-methoxyphenyl)-1-(4-hydroxyphenyl)-1-propanone]", "values": [{"measurement": "upregulation of IL-6 caused by extrinsic and intrinsic factors", "setting": "[1]", "value": "inhibiting the upregulation"}, {"measurement": "photostability", "setting": "[2]", "value": "high photostability"}, {"measurement": "temperature stability", "setting": "[2]", "value": "high temperature stability"}, {"measurement": "stability in a broad pH range", "setting": "[2]; broad pH range", "value": "high stability in a broad pH range"}, {"measurement": "upregulation of PGE-2 caused by extrinsic and intrinsic factors", "setting": "[3]", "value": "inhibiting the upregulation"}, {"measurement": "upregulation of IL-1 caused by extrinsic and intrinsic factors", "setting": "[4]", "value": "inhibiting the upregulation"}, {"measurement": "irritation", "setting": "[5]", "value": "did not cause irritation"}, {"measurement": "sensitization", "setting": "[5]", "value": "not sensitizing"}, {"measurement": "upregulation of TNF-alpha caused by extrinsic and intrinsic factors", "setting": "[6]", "value": "inhibiting the upregulation"}]}]}
